Values of other authors as cited in patent US20240207239A1, “COMPOSITION AND PREPARATION METHOD THEREFOR” (priority 2021, published 2024).

Settings: range of pH 1-12

CNC(=O)c1ccc(N2C(=S)N(c3cnc(C#N)c(C(F)(F)F)c3)C(=O)C23CCC3)cc1F [Apalutamide, 4-[7-(6-cyano-5-trifluoromethylpyridine-3-yl)-8-oxo-6-thioxo-5,7-diazaspiro[3. 4]octan-5-yl]-2-fluoro-N-methylbenzamide]
solubility in aqueous medium: almost insoluble
